From patent US20040018220A1, “Aqueous compositions for facial cosmetics” (Chiou Consulting, Inc., priority 2002, published 2004)

Test system: facial skin
Experiment: Single application of glycerin U.S.P. and other strengths of aqueous glycerin solutions and gels (Example IV)
Type: in vivo, human

OCC(O)CO [Glycerin U.S.P., glycerin]
feeling on application (applied to a wetted facial surface): better feeling (reduced stickiness) | shiny, moist, softening and dewy effects (single application, one human subject): results similar to those described in Example I
